Data reported in patent US20090023773A1, “COMPOSITIONS AND METHODS FOR MODULATING GATED ION CHANNELS” (PainCeptor Pharma Corporation, priority 2007, published 2009).
pIC50: −log10 of the molar value.

Target: T1, recombinant homomeric hASIC1a channels (Homo sapiens, UniProt P78348)
T1 construct: expressed in transfected cells; host or cells: Xenopus laevis oocytes (nuclear microinjection of expression vector such as pcDNA3)
T1 sequence (P78348 1-528): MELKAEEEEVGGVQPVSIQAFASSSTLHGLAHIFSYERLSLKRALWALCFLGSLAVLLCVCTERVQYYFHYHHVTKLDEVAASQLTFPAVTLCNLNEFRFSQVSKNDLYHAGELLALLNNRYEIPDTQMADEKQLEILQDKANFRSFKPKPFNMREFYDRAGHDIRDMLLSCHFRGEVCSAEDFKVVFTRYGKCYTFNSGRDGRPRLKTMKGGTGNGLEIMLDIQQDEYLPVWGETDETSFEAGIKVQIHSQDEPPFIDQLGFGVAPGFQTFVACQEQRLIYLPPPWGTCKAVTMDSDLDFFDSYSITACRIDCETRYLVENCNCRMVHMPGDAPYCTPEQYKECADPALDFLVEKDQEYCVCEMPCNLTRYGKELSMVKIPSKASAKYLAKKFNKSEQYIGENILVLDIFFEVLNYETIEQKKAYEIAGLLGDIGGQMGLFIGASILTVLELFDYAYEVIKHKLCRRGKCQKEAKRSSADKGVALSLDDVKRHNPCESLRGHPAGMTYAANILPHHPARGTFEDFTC
Experiment: Two-electrode voltage clamp in Xenopus laevis oocytes expressing gated ion channels (Example 4)
Format: cell-based
Conditions: generated using oocytes as in Example 4

Row | SMILES | pIC50 (Table 1) | pIC50 (Table 2)
1 | Cc1cc(OC2CC(C)(C)N(Cc3ccccc3)C(C)(C)C2)c2ccccc2n1 [Compound 4] | < 4.52 | 
2 | Cc1cc(OC2CCN(Cc3ccccc3F)C(C)C2)c2ccccc2n1 (stereo not shown) [Compound 5] | 5.00 to 7.00 | 
3 | Cc1nc(OC2CCN(Cc3ccccc3)CC2)c2ccccc2n1 [Compound 7] | 4.70 to 5.00 | 
4 | Cc1nc(OC2CCN(Cc3ccccc3F)CC2)c2ccccc2n1 [Compound 8] | < 4.52 | 
5 | Cc1nc(OC2CCN(Cc3ccccc3C#N)CC2)c2ccccc2n1 [Compound 9] | < 4.52 | 
6 | C=CCOC(=O)N1CCC(Oc2nc(C)nc3ccccc23)CC1 [Compound 10] | 5.00 to 7.00 | 
7 | Cc1cc(OC2CCN(Cc3ccccc3C#N)CC2)c2cccc(F)c2n1 [Compound 17] | 5.00 to 7.00 | 
8 | Cc1cc(OC2CCN(C(C)c3ccccc3C#N)CC2)c2cccc(F)c2n1 (stereo not shown) [Compound 18] | 4.52 to 4.70 | 
9 | Cc1cc(OC2CCCN(Cc3ccccc3)C2)c2ccccc2n1 (stereo not shown) [Compound 19] | < 4.52 | 
10 | Cc1cc(OC2CCN(Cc3c(F)cccc3C(=O)O)CC2)c2cccc(F)c2n1 [Compound 23] | < 4.52 | 
11 | Cc1cc(OC2CCN(Cc3ccccc3C(=O)O)CC2)c2cc(O)ccc2n1 [Compound 24] | < 4.52 | 
12 | Cc1cc(OC2CCN(Cc3cccnc3C(=O)O)CC2)c2cccc(F)c2n1 [Compound 25] | < 4.52 | 
13 | Cc1cc(OC2CCN(Cc3ccc(O)cc3)CC2)c2cccc(F)c2n1 [Compound 26, 4-((4-(8-fluoro-2-methylquinolin-4-yloxy)piperidin-1-yl)methyl)phenol] | 5.00 to 7.00 | 
14 | Cc1cc(OC2CCN(Cc3ccccc3)CC2)c2cc(F)ccc2n1 [Compound 29] |  | 5.00 to 7.00
15 | Cc1cc(OC2CCN(Cc3ccccc3C#N)CC2)c2cc(F)ccc2n1 [Compound 30] |  | 4.70 to 5.00
16 | Cc1cc(OC2CCN(Cc3ccccc3C(=O)O)CC2)c2cc(F)ccc2n1 [Compound 31] |  | 4.70 to 5.00
17 | COc1ccc(F)c2c(OC3CCN(Cc4ccccc4)CC3)cc(C)nc12 [Compound 33] |  | < 4.52

Row | SMILES | pIC50 (Table 1) | pIC50 (Table 2)
18 | COc1cc(F)cc2c(OC3CCN(Cc4ccccc4C(=O)O)CC3)cc(C)nc12 [Compound 36, 2-[4-(6-Fluoro-8-methoxy-2-methyl-quinolin-4-yloxy)-piperidin-1-ylmethyl]-benzoic acid] |  | 5.00 to 7.00
19 | COc1cc(F)cc2c(OC3CCN(Cc4ccccc4-c4nnn[nH]4)CC3)cc(C)nc12 [Compound 37, 6-Fluoro-8-methoxy-2-methyl-4-{1-[2-(1H-tetrazol-5-yl)-benzyl]-piperidin-4-yloxy}-quinoline] |  | 5.00 to 7.00
20 | Cc1cc(OC2CCN(C(C)c3ccccc3)CC2)c2ccccc2n1 (stereo not shown) [Compound 38] |  | 5.00 to 7.00
21 | Cc1cc(NC2CCN(Cc3ccccc3)CC2)c2ccccc2n1 [Compound 40] |  | < 4.52
22 | Cc1cc(OC2CCN(Cc3c(F)cccc3C#N)CC2)c2cccc(F)c2n1 [Compound 42] |  | 5.00 to 7.00
23 | Cc1cc(OC2CCN(Cc3c(F)cccc3C#N)CC2)c2cc(C#N)ccc2n1 [Compound 45] |  | < 4.52
24 | Cc1cc(OC2CCN(Cc3ccccc3)CC2)c2cc(C#N)ccc2n1 [Compound 46] |  | 4.52 to 4.70
25 | Cc1cc(OC2CCN(Cc3ccccc3-c3nnn[nH]3)CC2)c2cccc(F)c2n1 [Compound 50, 4-[1-(2-(1H-tetrazol-5-yl-)benzyl)piperidin-4-yloxy]-8-fluoro2-methylquinoline] |  | 5.00 to 7.00
26 | COC(=O)c1ccc(NC(=O)c2ccccc2CN2CCC(Oc3cc(C)nc4c(F)cccc34)CC2)cc1 [Compound 51] |  | 4.70 to 5.00
27 | Cc1cc(OC2CCN(Cc3ccccc3C#N)CC2)c2cc(OC3CCCCO3)ccc2n1 (stereo not shown) [Compound 52] |  | < 4.52
28 | Cc1cc(OC2CCN(Cc3ccccc3C(=O)Nc3ccc(C(=O)O)cc3)CC2)c2cccc(F)c2n1 [Compound 54] |  | 5.00 to 7.00
29 | Cc1cc(OC2CCN(Cc3ccccc3)CC2)c2cc(-c3cccc(F)c3)ccc2n1 [Compound 55] |  | < 4.52
30 | Cc1cc(OC2CCN(Cc3ccccc3)CC2)c2cc(-c3nnn[nH]3)ccc2n1 [Compound 58] |  | < 4.52
31 | Cc1cc(OC2CCN(Cc3ccccc3-c3nnn[nH]3)CC2)c2cc(Br)ccc2n1 [Compound 59] |  | < 4.52
32 | Cc1cc(OC2CCN(Cc3ccccc3C#N)CC2)c2cc(C#N)ccc2n1 [Compound 60] |  | < 4.52
33 | Cc1cc(OC2CCN(Cc3ccccc3C(=O)NCCCC(=O)OCc3ccccc3)CC2)c2cccc(F)c2n1 [Compound 61] |  | 5.00 to 7.00
34 | Cc1cc(OC2CCN(Cc3ccc(F)c(C#N)c3)CC2)c2ccccc2n1 [Compound 65] |  | < 4.52

Next, values leading:

Row | pIC50 (Table 1) | pIC50 (Table 2) | SMILES
35 | 5.00 to 7.00 |  | Cc1cc(OC2CCN(Cc3ccccc3F)CC2)c2cccc(F)c2n1 [Compound 2]
36 | 5.00 to 7.00 |  | Cc1cc(OC2CCN(Cc3cccnc3)CC2)c2cccc(F)c2n1 [Compound 3]
37 | 5.00 to 7.00 |  | COc1cccc2c(OC3CCN(Cc4ccccc4)CC3)cc(C)nc12 [Compound 11]
38 | 4.52 to 4.70 |  | O=C(O)c1cc(OC2CCN(Cc3ccccc3)CC2)c2ccccc2n1 [Compound 12]
39 | 5.00 to 7.00 |  | COc1cccc(CN2CCC(Oc3cc(C)nc4ccccc34)CC2)c1 [Compound 14]
40 | 5.00 to 7.00 |  | Cc1cc(OC2CCN(C(C)c3ccccc3C(=O)O)CC2)c2cccc(F)c2n1 (stereo not shown) [Compound 15]
41 | < 4.52 |  | Cc1cc(O[C@H]2CCCN(Cc3ccccc3)C2)c2ccccc2n1 [Compound 20]
42 | < 4.52 |  | Cc1cc(OC2CCN(Cc3ccccc3)CC2)c2cccc(O)c2n1 [Compound 21]
43 | 5.00 to 7.00 |  | Cc1cc(OC2CCN(Cc3cccc(O)c3)CC2)c2ccccc2n1 [Compound 22]
44 |  | 5.00 to 7.00 | Cc1cc(OC2CCN(Cc3cccc(F)c3)CC2)c2ccccc2n1 [Compound 27]
45 |  | 5.00 to 7.00 | COc1cc(F)cc2c(OC3CCN(Cc4ccccc4)CC3)cc(C)nc12 [Compound 32]
46 |  | < 4.52 | COc1cc(F)cc2c(OC3CCN(Cc4ccccc4C#N)CC3)cc(C)nc12 [Compound 34]
47 |  | < 4.52 | COc1ccc(F)c2c(OC3CCN(Cc4ccccc4C#N)CC3)cc(C)nc12 [Compound 35]
48 |  | < 4.52 | Cc1cc(OC2CCN(C(C)C)CC2)c2cccc(F)c2n1 [Compound 39]
49 |  | 5.00 to 7.00 | COc1ccc(CN2CCC(Oc3cc(C)nc4c(F)cccc34)CC2)cc1 [Compound 41]
50 |  | < 4.52 | Cc1cc(OC2CCN(Cc3c(F)cccc3C(=O)O)CC2)c2cc(Br)ccc2n1 [Compound 43]
51 |  | < 4.52 | Cc1cc(OC2CCN(Cc3c(F)cccc3C#N)CC2)c2cc(Br)ccc2n1 [Compound 44]
52 |  | 5.00 to 7.00 | COc1ccc(CN2CCC(Oc3cc(C)nc4c(F)cccc34)CC2)c(F)c1 [Compound 47]
53 |  | < 4.52 | COc1ccc(CN2CCC(Oc3cc(C)nc4ccc(Br)cc34)CC2)cc1 [Compound 48]
54 |  | 5.00 to 7.00 | Cc1cc(OC2CCN(Cc3ccc(O)cc3F)CC2)c2cccc(F)c2n1 [Compound 49]
55 |  | 5.00 to 7.00 | Cc1cc(OC2CCN(Cc3ccccc3-c3nnn[nH]3)CC2)c2cc(O)ccc2n1 [Compound 56]
56 |  | < 4.52 | Cc1cc(OC2CCN(Cc3ccccc3C#N)CC2)c2cc(Br)ccc2n1 [Compound 57]
57 |  | < 4.52 | Cc1cc(OC2CCN(Cc3ccccc3C#N)CC2)c2ccccc2n1 [Compound 63]
58 |  | 4.52 to 4.70 | COC(=O)c1ccc(CN2CCC(Oc3cc(C)nc4ccccc34)CC2)cc1 [Compound 64]
59 |  | < 4.52 | Cc1cc(OC2CCN(Cc3ccc(C(=O)O)cc3)CC2)c2ccccc2n1 [Compound 66]
60 |  | < 4.52 | Cc1cc(OC2CC(C)N(Cc3ccccc3F)C(C)C2)c2ccccc2n1 (stereo not shown) [Compound 67]
61 |  | 5.00 to 7.00 | c1ccc(CN2CCC(Oc3ccnc4ccccc34)CC2)cc1 [Compound 68]
